Test results published in patent publication US10690666B2, “Methods and compositions for modulating TH-GM cell function” (National University of Singapore, priority 2014, dated 2020).

B1: IL-23: cytokine (R&D Systems) (protein, UniProt Q9NPF7 20-189; P29460 23-328, looked up)
Interleukin-23 subunit alpha: RAVPGGSSPAWTQCQQLSQKLCTLAWSAHPLVGHMDLREEGDEETTNDVPHIQCGDGCDPQGLRDNSQFCLQRIHQGLIFYEKLLGSDIFTGEPSLLPDSPVGQLHASLLGLSQLLQPEGHHWETQQIPSLSPSQPWQRLLLRFKILRSLQAFVAVAARVFAHGAATLSP
Interleukin-12 subunit beta: IWELKKDVYVVELDWYPDAPGEMVVLTCDTPEEDGITWTLDQSSEVLGSGKTLTIQVKEFGDAGQYTCHKGGEVLSHSLLLLHKKEDGIWSTDILKDQKEPKNKTFLRCEAKNYSGRFTCWWLTTISTDLTFSVKSSRGSSDPQGVTCGAATLSAERVRGDNKEYEYSVECQEDSACPAAEESLPIEVMVDAVHKLKYENYTSSFFIRDIIKPDPPKNLQLKPLKNSRQVEVSWEYPDTWSTPHSYFSLTFCVQVQGKSKREKKDRVFTDKTSATVICRKNASISVRAQDRYYSSSWSEWASVPCS

Columns and labels:
naïve CD4+ T cells [1] = assay: In vitro TH-GM (GM-CSF-expressing TH) differentiation from naïve CD4+ T cells; type: cell-based, mouse; settings: anti-CD3 and anti-CD28 plus cytokine or antibody
Method: Naïve CD4^+ T cells were primed with plate-bound anti-CD3 and soluble anti-CD28 in the presence of a combination of various cytokines and neutralizing antibodies as indicated. GM-CSF, IL-17 and IFN-γ expression was analyzed by intracellular staining (FIG. 13A) or RT-PCR (FIG. 13B)
GM-CSF and IFN-γ expression in naive CD4^+ T cells activated for 72 h with anti-CD3 alone or plus anti-CD28 (FIG. 14A). In FIG. 14B, sorted naïve CD4^+ T cells were stimulated with anti-CD3 and anti-CD28 in the presence of neutralizing antibodies against IL-12 and IFN-γ without or with the addition of IL-6. The frequencies of GM-CSF^+ and IL-17^+ cells were measured by intracellular staining (FIG. 14B). In FIG. 14C, naïve CD4^+ T cells from Stat3^+/+ and Stat3^−/− mice were polarized under conditions as indicated for 72 h. The frequencies of GM-CSF^+ and IL-17^+ cells were analyzed. In FIG. 14D, naïve CD4^+ T cells were activated with anti-CD3 and anti-CD28 in the presence of IL-2 or anti-IL-2. The frequencies of GM-CSF^+, IL-17^+ and IFN-γ^+ cells were analyzed.
Naïve CD4^+ T cells were primed with plate-bound anti-CD3 and soluble anti-CD28 in the presence of various concentration of IL-7 as indicated. GM-CSF and IFN-γ expression was analyzed by intracellular staining (FIG. 15A) or ELISA (FIG. 15B). In FIGS. 15C and 15D, Stat5^+/+ and Stat5^−/− naïve CD4^+ T cells were activated with anti-CD3 and anti-CD28 in the presence IL-7 for 3 days. GM-CSF, IL-17 and IFN-γ expression was analyzed by intracellular cytokine staining (FIG. 15C). GM-CSF secretion was measured by ELISA (FIG. 15D).
In FIG. 22E, naïve CD4^+ T cells were isolated and activated under neutral condition or TH-GM cell-favoring condition with the addition of different concentrations of STAT5 inhibitor for 3 days. GM-CSF and IFN-γ expression was analyzed by intracellular cytokine staining and flow cytometry.

naïve CD4+ T cells [2] = assay: In vitro TH17 differentiation; type: cell-based, mouse; settings: data not shown
Method: CD4^+ T cells were obtained from spleens and lymph nodes by positive selection and magnetic separation (Miltenyi Biotech), followed by purification of naïve CD4^+ T cell population (CD4^+CD25^−CD62L^hiCD44^lo) sorted with FACS Aria. Naïve CD4^+ T cells were stimulated with plate-bound anti-CD3 (3 μg/ml; BD Pharmingen) and anti-CD28 (1 μg/ml; BD Pharmingen) in presence of different combinations of neutralizing antibodies and cytokines for 3˜4 days: for neutral conditions, no addition of any cytokine or neutralizing antibody; for TH1 conditions, IL-12 (10 ng/ml), and anti-IL-4 (10 μg/ml, BD Pharmingen); for TH17 conditions, hTGF-β (3 ng/ml), IL-6 (20 ng/ml), anti-IFN-γ (10 μg/ml, eBioscience), and anti-IL-4 (10 μg/ml); for an alternative TH17 conditions, IL-6 (20 ng/ml), IL-23 (10 ng/ml), IL-1β (10 ng/ml), anti-IFN-γ (10 μg/ml), and anti-IL-4 (10 μg/ml). […] Cells were acquired on the LSR II (BD Biosciences) and analyzed with FlowJo software (Tree Star).
Stat5 deletion (Cd4-cre; Stat5^f/−) mice was reported to develop peripheral lymphopenia, with a reduction of both CD4^+ and CD8^+ T cells (Yao et al., 2006). […] Furthermore, increased frequencies of IL-17^+ and IFN-γ^+ cells were detected among CD4^+ T cells in spleens of Stat5^−/− mice (FIG. 4C), which further support the idea that the resistance to EAE in Stat5^−/− mice is likely independent of TH1 and TH17 generation. […]

STAT5 = assay: Cytokine-induced STAT5 activation in CD4+ T cells, immunoblotting; type: cell-based, mouse; settings: for STAT5 activation (tyrosine phosphorylation): CD4+ T cells cultured with TGF-β and IL-6 3 days, starved 6 h
Method: (§1) In FIG. 10A, purified CD4^+ T cells were cultured with TGF-β and IL-6 for 3 days, followed by starvation for 6 h. Then cells were treated with various cytokines for 30 min, and pSTAT3 and pSTAT5 was determined by immunoblotting. STAT3 and STAT5 were further detected after stripping. […] The RT-PCR data were normalized to β-Actin. […] The frequencies of GM-CSF^+ and IL-17^+ cells among CD4^+CD44^hi T cells were measured by flow cytometry. *p<0.05.
(§2) FIGS. 17A-17C show flow cytometry of CD25 and CD127 on the surface of naïve CD4^+ T cells or cells activated with anti-CD3 and anti-CD28 at various time points as indicated. […] The RT-PCR data were normalized to β-Actin, and expression in naïve T cells activated for 2 h without cytokine was set to 1.
As shown in FIGS. 18A and 18B, CD4^+ T cells were activated with anti-CD3 and anti-CD28 for 3 days. […] The pTyr-STAT5 and β-Actin were detected by immunoblotting (FIG. 18A). GM-CSF mRNA expression was measured by RT-PCR (FIG. 18B). The RT-PCR data were normalized to β-Actin, and expression in cells without cytokine stimulation was set to 1. The ChIP assay shown in FIG. 18C was performed with normal IgG or STAT5-specific antibody. The binding of antibodies to Csf2 promoter region was detected by RT-PCR.
(§3) Next, the mechanism by which STAT5 regulates GM-CSF expression was investigated. […] Therefore, the effect of these two cytokines on GM-CSF induction in autoreactive T cells was further examined. […] GM-CSF and IL-17 production by CD4^+ T cells were analyzed by intracellular cytokine staining.

CD4+CD44hi T cells = assay: MOG35-55 challenge of splenocytes from immunized mice, GM-CSF expression; type: cell-based, mouse; settings: MOG35-55 (20 μg/ml) plus cytokine, 48 h
Method: as §1, §3

[3] = system: CD62LhiCD44lo and CD62LloCD44hi T cells; assay: GM-CSF expression in sorted CD62LhiCD44lo and CD62LloCD44hi T cells, RT-PCR; type: cell-based, mouse; settings: anti-CD3 and anti-CD28, cytokine 4 h
Method: Splenocytes were obtained from MOG35-55/CFA-immunized Stat5^+/+ and Stat5^−/− mice before disease onset and challenged with MOG35-55 (20 μg/ml) in the absence or presence of IL-7 for 48 h. Frequencies of GM-CSF^+ and IL-17^+ cells among CD4^+CD44^hi T cells were measured by flow cytometry (FIG. 11A). GM-CSF secretion was measured by ELISA (FIG. 11B). Data represent two independent experiments with two to three mice per group. Splenic CD62L^hiCD44^lo and CD62L^loCD44^hi T cells from MOG35-55/CFA-immunized mice were sorted out. Cells were stimulated with anti-CD3 and anti-CD28 in the absence or presence of IL-7 for 4 h and then harvested for the analysis of GM-CSF expression by RT-PCR (FIG. 11C). *p<0.05
Total RNA was extracted from cells with RNeasy kit (Qiagen) according to the manufacturer's instruction. Complementary DNA (cDNA) was synthesized with Superscript reverse transcriptase (Invitrogen). Gene expressions were measured by 7500 real-time PCR system (Applied Biosystems) with SYBR qPCR kit (KAPA). Actinb, Gapdh or Rn18S was used as internal control. The primer sequences are available upon request.
Thus, CD62L^hiCD44^lo and CD62L^loCD44^hi T cells were sorted from Stat5^−/− mice and littermate controls during EAE development, and then activated cells in the presence or absence of IL-7.

naïve CD4+ T cells [4] = assay: GM-CSF mRNA expression in naïve CD4+ T cells stimulated with IL-2 or IL-7, RT-PCR; type: cell-based, mouse; settings: anti-CD3 and anti-CD28 plus cytokine
Method: as §2
The primer sequences are available upon request.

naïve CD4+ T cells [5] = settings: El-Behi et al., 2011; cited from earlier work

Molecule	GM-CSF-expressing cell differentiation from naïve CD4+ T cells (naïve CD4+ T cells [1])	STAT5 activation (tyrosine phosphorylation) (STAT5; cytokine 30 min)	also measured
IL-7: cytokine interleukin-7 (R&D Systems)	strongly promoted	potently activated STAT5	TH17 differentiation (naïve CD4+ T cells [2]): not observed to have a demonstrable effect; STAT5 activation, Csf2 promoter binding and GM-CSF mRNA in activated CD4+ T cells (STAT5; CD4+ T cells activated 3 days, rested, then cytokine): induced STAT5 activation, Csf2 promoter binding and GM-CSF mRNA upregulation; STAT5 activation in naïve CD4+ T cells (STAT5; naïve CD4+ T cells, cytokine 30 min): induced STAT5 activation; frequency of GM-CSF+ T cells / GM-CSF expression in CD4+CD44hi T cells (CD4+CD44hi T cells): significantly promoted GM-CSF expression; GM-CSF expression in CD62LhiCD44lo and CD62LloCD44hi T cells [3]: promoted GM-CSF expression; GM-CSF mRNA expression in naïve CD4+ T cells (naïve CD4+ T cells [4]): upregulated GM-CSF mRNA expression
IL-6: cytokine (R&D Systems), essential for TH17 differentiation	profound inhibitory effect		
TGF-β: cytokine (R&D Systems)			GM-CSF expression (naïve CD4+ T cells [5]): inhibits GM-CSF expression
IL-1β: cytokine (R&D Systems)	did not increase GM-CSF-expressing cell differentiation	neither IL-23 nor IL-1β seemed to be potent STAT5 stimulators	
B1	did not increase GM-CSF-expressing cell differentiation	neither IL-23 nor IL-1β seemed to be potent STAT5 stimulators	
